{
  "source": "patent US11110105B2",
  "about": "“Compounds, composition and uses thereof for treating cancer” (INSTITUT GUSTAVE ROUSSY, priority 2017, dated 2021)",
  "key": {"[1]": {"experiment": "MTT assay on B16F10 cell line", "type": "cell-based, mouse", "details": "mouse, B16F10 melanoma cells, MTT, read-out: % cell viability (±SEM)", "experimental": "(§1) RNA was extracted and qRT-PCR was performed with primers amplifying the unspliced (intron) and the spliced (exon) globin-SL8-intron RNA. Data are given as mean ±SEM of the ratio of 2^−ΔΔCt intron and 2^−ΔΔCt exon of at least three independent experiments. […] Data are express as mean ±SEM of the percentage of viable cells compared to the control condition of at least three independent experiments. *P<0.05, **P<0.01, ***P<0.001 (unpaired student t test).\n(§2) MCA205 mouse sarcoma cell line is cultured at 37° C. under 5% CO2 in RPMI 1640 medium (Life Technologies) in the presence of 1% glutamine, 1% sodium pyruvate, 1% non-essential amino-acids, 1% penicillin/streptomycin and 10% FBS (Life Technologies) under standard conditions. B16F10 mouse melanoma cell line, MRC5 human fibroblast cell line and A375 human melanoma cell line are cultured at 37° C. under 5% CO2 in DMEM medium (Life Technologies) containing 1% glutamine, 1% penicillin/streptomycin and 10% FCS under standard conditions. A549 human lung carcinoma cell line is cultured at 37° C. under 5% CO2 in DMEM/F12+Glutamax I in the presence of 1% Hepes, 1% sodium pyruvate and 10% FBS under standard conditions. Stable MCA205-Globin-SL8-intron cell line are cultured under the same condition as MCA205 cell line with additional 2 mg/ml G418 (geneticin from Life Technologies) for selection. Stable B16F10-Globin-SL8-intron cell line are cultured under the same condition as B16F10 cell line with additional 2 mg/ml G418 (geneticin from Life Technologies) for selection. The SL8/Kb-specific (B3Z) T-cell reporter hybridoma are cultured at 37° C. under 5% CO2 in RPMI 1640 medium (Life Technologies) in the presence of 1% glutamine, 0.1% β-galactosidase, 1% penicillin/streptomycin and 10% FCS under standard conditions.\n(§3) MTT assay on MCA205 and B16F10 cell lines treated with 6.25 μM, 15 μM or 25 μM of isoginkgetin. Dare are given as the mean of the percentage of cell viability ±SEM from at least three independent experiments."}, "[2]": {"system": "B16F10 mouse melanoma cell line", "experiment": "MTT assay on B16F10 cell line", "type": "cell-based", "details": "B16F10 WT cells, 15 μM or 35 μM", "experimental": "as §1, §2, §3"}, "[3]": {"system": "mouse sarcoma cell line MCA205", "experiment": "B3Z SL8-specific T-cell activation assay, MCA205", "type": "cell-based", "details": "MCA205, Globin-intron-SL8", "experimental": "B3Z SL8-specific T-cell activation after co-culture with (A) human melanoma A375, human lung carcinoma A549 or normal human lung fibroblast MRC5 cell lines, all transiently expressing the intron-derived SL8 peptide and the H2-K^b molecules and treated upstream with 2,5 μM or 6,25 μM isoginkgetin for 18 hours; or with (B) mouse sarcoma MCA205 or mouse melanoma B16F10 cell lines both transiently expressing the intron-derived SL8 peptide and treated upstream with 6,25 μM, 15 μM or 25 μM isoginkgetin for 18 hours. […]\nData are given as mean ±SEM. *P<0.05, **P<0.01, ***P<0.001 (unpaired student t test). […] Tumor size was assessed every 3 to 4 days until reaching the established ethical endpoints. […]\nMCA205 and B16F10 mouse cell lines are transfected with the plasmid YFP-Globin-SL8-intron or with the PCDNA3 empty plasmid (negative control) with the transfection reagent jetPRIME (Ozyme) or GeneJuice (Millipore) respectively according to each manufacturer protocol. […] Finally, the β-galactosidase activity is measured using the FLUOstar OPTIMA (BMG LABTECH Gmbh, Offenburg, Germany). Results are expressed as mean ±SEM. *P<0.05, **P<0.01, ***P<0.001 (unpaired student t test)."}},
  "data": [
    {"smiles": "COc1ccc(-c2cc(=O)c3c(O)cc(O)c(-c4cc(-c5cc(=O)c6c(O)cc(O)cc6o5)ccc4OC)c3o2)cc1", "note": "[Isoginkgetin, isoginkgetin]", "values": [
      {"measurement": "viability at 6.25 µM", "setting": "[1]; B16F10, 6.25 μM", "result": 86.5, "unit": "%"},
      {"measurement": "viability at 15 µM", "setting": "[1]; B16F10, 15 μM", "result": 58.6, "unit": "%"},
      {"measurement": "viability at 25 µM", "setting": "[1]; B16F10, 25 μM", "result": 51.2, "unit": "%"}
    ]},
    {"smiles": "COc1ccc(-c2cc(=O)c3c(OC)cc(OP(=O)([O-])[O-])c(-c4cc(-c5cc(=O)c6c(OC)cc(OP(=O)([O-])[O-])cc6o5)ccc4OC)c3o2)cc1.[Na+].[Na+].[Na+].[Na+]", "note": "[IM2P2]", "values": [
      {"measurement": "toxicity (MTT, percentage of viable cells compared to control)", "setting": "[2]", "result": "no toxicity"},
      {"measurement": "intron-SL8-derived antigen presentation (B3Z activation)", "setting": "[3]; 15 μM or 35 μM", "result": "decreases its presentation"},
      {"measurement": "PTPs-dependent (intron-derived SL8) antigen presentation (B3Z activation)", "setting": "[3]; 15 μM, 25 μM or 35 μM", "result": "does not increase the presentation"}
    ]}
  ]
}
